Like-named read-outs stand apart in the source and are kept apart here.
Key:
[1] = Log P measurement (1-octanol/phosphate buffer, UV); format: physicochemical; details: 1-octanol / 0.02 M phosphate buffer; 1-octanol / phosphate buffer pH 7.4
Experimental: The partition coefficient of FBAT, determined between 1-octanol and 0.02 M phosphate buffer at pH 7.4, was measured by UV spectrophotometer (SPARK 10 M from Tecan) at wavelength 230 nm.

iNOS [2] = details: cited from earlier work
eNOS = details: cited from earlier work; for selectivity vs. eNOS: iNOS vs. eNOS
nNOS = tested on: nNOS; set-up: method as in PMID 11327580; details: cited from earlier work
[3] = dog, 10 min postinjection; cited from earlier work
[4] = within 5 min postinjection; cited from earlier work
[5] = tested on: murine microglial BV2 cells; experiment: In vitro [^18F]FBAT uptake assay; format: cell-based; details: pretreatment 0.1 mM or 1 mM for 1 h
Experimental: BV2 cells were cultured as described above, washed three times with fresh medium, pretreated with a selective iNOS inhibitor, aminoguanidine (AMG), (0, 1, or 0.1 mM) for 1 h, and then treated with cell culture media containing LPS and the inhibitor. At the indicated time points, the cells were washed thrice with fresh cell culture media, then incubated in fresh cell culture media continuing the radiotracer [^18F]FBAT at 0.37 MBq/mL for 15, 30, or 60 min, harvested by gentle scraping, and pelleted by centrifugation at 1500 g for 2 min. The weight of the cell pellet and 0.1 mL of the radioactive supernatant was determined. A Packard 5500 gamma counter (PerkinElmer, Billerica, MA, USA) was used to quantify radioactivity as cpm/g cells or cpm/mL media, respectively. Cell-to-medium radioactivity concentration ratios were calculated and plotted over time to evaluate the kinetics of accumulation of the radiotracer.
(§1) iNOS is the enzyme responsible for NO generation in BV2 cells; therefore, accumulation of [^18F]FBAT in BV2 cells before or after iNOS inhibitor versus NO production was also assessed.

[6] = tested on: murine microglial BV2 cells; experiment: LPS-dependent nitric oxide (NO) production, Griess assay; format: cell-based; details: pretreatment 0.1 or 1 mM
Experimental: Briefly, murine microglial BV2 cells were cultured in high-glucose Dulbecco's modified Eagle's medium (DMEM) supplemented with 100 U/mL penicillin. The cells were cultured in 6-well plates (~50,000 cells/well) in a humidified 5% CO2 atmosphere at 37°C until ∼60–70% confluent, washed three times with fresh media, and cultured in complete media containing LPS (0, 50, 100, or 200 ng/mL, Sigma-Aldrich, St. Louis, MO, USA). At the indicated time points, the culture media were harvested.
To assay NO, 100 μL aliquots of culture media were added to 100 μL of Griess reagent (1% sulfanilamide in 5% H3PO4) in 96-well plates, incubated at room temperature for 10 min; then, 50 μL NED Griess reagent (0.1% N-naphthyl-ethylenediamine dihydrochloride) was added and incubated for 10 min, and the absorbance values were determined at 540 nm using a TECAN Sunrise ELISA Reader. Fresh culture medium was used as a blank. The concentrations of nitrite were determined by comparison with a standard curve of sodium nitrite prepared in cell culture media.
as §1

iNOS [7] = molecular target: T1, iNOS (Mus musculus, UniProt P29477); experiment: In vivo brain PET/MR imaging of LPS-induced iNOS expression (SUV, SUR, AUC) incl. aminoguanidine blocking; set-up: species or system C57BL/6 mice; details: 50 mg/kg i.p. pretreatment
T1 construct: tracer to detect iNOS expression in mice injected with lipopolysaccharide (LPS) to induce brain inflammation; from tissue; host or cells: brain of living C57BL/6 mice (LPS-induced); fixed brain sections for IHC
Experimental: For the imaging experiments, twelve C57BL/6 mice were injected i.p. with 0.9% NaCl, eighteen mice were injected i.p. with 0.1 mL of LPS in saline (5 mg/kg), and six mice were injected i.p. with aminoguanidine (Sigma-Aldrich) 30 min prior to 5 mg/kg LPS. In vivo imaging was performed 3 h or 24 h after injection of LPS; then, the mice were immediately humanely euthanized and the brains were removed for immunostaining.
Mice (n = 30) were anesthetized with 2% isoflurane (in oxygen) and injected with [^18F]FBAT (11.1 MBq; 0.3 mCi) via the tail vein. Dynamic PET images were obtained in fully three-dimensional list mode for 30 min using a small animal SuperArgus 2r PET system (SEDECAL, Madrid, Spain) or 7T PETMR Inline (Bruker, Rheinstetten, Germany; energy window, 350-650 keV; timing window, 6 ns). Images were acquired every 10 s for 12 images, 60 s for three images, 300 s for three images, or 600 s for […]. The anatomical structure of the brain was imaged using T2 MRI. The MRI sequences included 0.5 mm thick T2 Turbo RARE high-resolution images (TR = 3000 ms, TE, 46 ms, matrix, 512 × 256, average, 40, slice number, 30, field of view, 20 × 10 mm).
After determining the optimal imaging time point for [^18F]FBAT, we performed a blocking study using a selective iNOS inhibitor to assess the specificity of the tracer for iNOS. Separate 7T PET/MR studies with [^18F]FBAT were performed for mice (n = 6) administered a bolus of aminoguanidine (50 mg/kg i.p.) 30 min prior to administration of [^18F]FBAT. The time course of [^18F]FBAT radioactivity in the brain after administration of the iNOS inhibitor was assessed and compared to that of the mice in the LPS 3 h group.
Images were reconstructed by the Fourier rebinning algorithm and two-dimensional filtered back projection using a ramp filter with a cutoff at Nyquist. The regional radioactivity concentration (kBq/cc) of [^18F]FBAT was estimated from the mean pixel values within the region of interest (ROI) corresponding to MR images of various organs and regions of the brain. ROI for carotid artery, heart muscle, lung, liver, spleen, and kidney were defined and time activity curves (TACs) generated. TACs for whole brain, cortex, cerebellum, and brainstem were also determined as described above.
The concentration of radioactivity (kBq/cc, μCi/cc) was converted to standardized uptake value (SUV), and the mean and standard deviation (SD) of radiotracer accumulation values were calculated for different organs and regions of the brain. Data were analyzed with PMOD 4.0 software (PMOD Technologies Ltd., Zurich, Switzerland).

iNOS [8] = experiment: Immunohistochemistry of iNOS in brain sections; format: in vivo, C57BL/6 mice; details: pretreatment, vs LPS 3 h group
Experimental: After imaging, mice were terminally anesthetized with ketamine/xylazine and perfused with 4% paraformaldehyde, and the brains were dissected, postfixed overnight in 4% paraformaldehyde at 4°C. Five-micrometer thick paraffin-embedded brain tissues were deparaffinized, rehydrated, microwaved in 10 mM citrate buffer (pH 6.0) at 100°C for 10 min for antigen retrieval, washed, incubated in 3% […] for 15 min at RT to inhibit endogenous peroxidases, and blocked in blocking solution for 60 min at RT.
Sections were incubated with primary NOS2/NOS1 antibodies (Cat# MAB 1627; Abnova, Walnut, CA, USA) diluted 1 : 100 overnight at 4°C, developed using the Vectastain Elite kit (Vector Laboratories, Burlingame, CA) following the manufacturer's instructions, and examined using an AxioScope A1 microscope (Zeiss, Oberkochen, Germany) equipped with an Axiocam 512 color digital camera (Zeiss).
The immunohistochemistry images were converted into 8-bit grayscale images in the range. Immunostaining intensity was manually measured in the region of interest (ROI). The median (25%, 75% interquartile range) percentage score for each group (control, LPS 3 h, and LPS 24 h) was calculated as the sum of the individual number of slides within the group.

SMILES: NC1=NC2(CCN(C(=O)c3ccc(F)cc3)CC2)Nc2c(F)ccc(F)c21 [FBAT, (4′-amino-5′,8′-difluoro-1′H-spiro[piperidine-4,2′-quinazolin]-1-yl)(4-fluorophenyl)methanone]
- logP [1]: 1.4 ± 0.27

SMILES: NC1=NC(c2ccc(F)cc2)Cc2cccc(F)c21 (stereo not drawn) [FFDI, 8-fluoro-3-(4-fluorophenyl)-3,4-dihydro-1-isoquino-linamine]
- IC50 (iNOS [2]; read-out: IC50 (affinity for iNOS)): 160 nM
- selectivity for iNOS vs. eNOS (eNOS): ~ 1000 fold
- selectivity for iNOS vs. nNOS (nNOS): 100 fold

SMILES: COC(=O)[C@@H](N)CCCN=C(N)N[N+](=O)[O-] [[^11C]L-NAME, N-omega-nitro-L-arginine [^11C]methyl ester]
- IC50 (iNOS [2]; read-out: iNOS IC50): 20000 nM
- fraction of radioactivity present as [^11C]methanol (metabolite) [3]: 65%

SMILES: CSC(=N)N [[^11C]MITU, S-[^11C]methylisothiourea]
- IC50 (iNOS [2]; read-out: iNOS IC50): 3000 nM

SMILES: [11CH3]SC(=N)N [[^11C]MITU, S-[^11C]methylisothiourea]
- selectivity vs. eNOS (eNOS): 2.3 fold

SMILES: Cc1cc(N)nc(CC(C)F)c1 (stereo not drawn) [[^18F]9, [^18F]6-(2-fluoropropyl)-4-methyl-pyridin-2-amine]
- parent fraction of activity in the blood [4]: 40.3%

SMILES: N=C(N)SCC[18F] [[^18F]FEITU, S-(2-[^18F]fluoroethyl)isothiourea]
- IC50 (iNOS [2]; read-out: iNOS IC50): 140 nM
- selectivity vs. eNOS (eNOS): 9 fold

SMILES: N=C(N)NN [aminoguanidine, reference compound]
- effect on LPS-induced [^18F]FBAT accumulation in BV2 cells [5]: inhibited
- effect on LPS-induced [^18F]FBAT accumulation in BV2 cells ([5]; listed as AMG): significantly reduced
- effect on LPS-induced NO production [6]: completely abolished
- effect on [^18F]FBAT accumulation (SUV, AUC, Vt) in brain of LPS-induced mice (iNOS [7]): significantly decreased
- effect on [^18F]FBAT accumulation (SUV, AUC, Vt) in brain of LPS-induced mice (iNOS [7]; listed as Aminoguanidine): significantly reduced
- effect on LPS-induced iNOS immunoactivity, brainstem (iNOS [8]): significantly reduced
- effect on LPS-induced iNOS immunoreactivity, cortex (iNOS [8]): significantly reduced

Source: PMC8328489, “Automated Synthesis and Initial Evaluation of (4′-Amino-5′,8′-difluoro-1′H-spiro[piperidine-4,2′-quinazolin]-1-yl)(4-[^18F]fluorophenyl)methanone for PET/MR Imaging of Inducible Nitric Oxide Synthase” (Molecular Imaging, 2021)
